Results on 13 compounds are retold here after patent publication US12304910B2, “Janus kinase (JAK) family inhibitor, preparation of same, and applications thereof” (JIANGSU VCARE PHARMATECH CO., LTD., priority 2019, dated 2025).

Format in all cases: biochemical
For one assay, the target named is JAK1 (Homo sapiens, UniProt P23458). Description: Kinase activity test (γ33P-ATP isotopic method), JAK1. Conditions: for IC50: 33P-ATP 10 μM, 2 h reaction; for activity in inhibiting the JAK1 kinase compared with Tofacitinib (in words): conclusion from Table 1. The procedure:
(§1) This experiment adopted a γ^33p-ATP isotopic test method to test the inhibitory effect of a compound on kinases JAK1, JAK2, JAK3 and TYK2, and obtained a half inhibitory concentration IC50 of the compound for inhibiting activity of the kinase.
(§2) 20 mM 4-hydroxyethylpiperazine ethanesulfonic acid buffer (Hepes, pH 7.5), 10 mM magnesium chloride (MgCl2), 1 mM ethylene glycol diethyl ether diamine tetraacetic acid (EGTA), 0.02% dodecyl polyethylene glycol ether (Brij35), 0.02 mg/ml bovine serum albumin (BSA), 0.1 mM sodium vanadate (Na3VO4), 2 mM dithiothreitol (DTT), and 1% dimethylsulfoxide (DMSO).
(§3) A compound is dissolved with 100% DMSO to a specific concentration, and then subjected to gradient dilution by an automatic sampling device to obtain the samples to be tested with different concentrations (DMSO solutions).
(§4) 3.1 diluting the reaction substrate with the basic reaction buffer;
(§5) 3.2 adding the kinase into the substrate solution, and gently mixing well;
(§6) 3.3 adding, by the automatic sampling system, the 100% DMSO diluted compounds with different concentrations into the kinase solution, and incubating for 20 min at room temperature; and
(§7) 3.4 adding ^33p-ATP (10 μM, 10 μCi/μl) at room temperature to initiate the kinase reaction for a duration of 2 h.
(§8) The unreacted ATP and the reaction-generated […] in the reaction were removed by an ion exchange filtering system, and then the amount of radioactivity of ^33p isotope in the substrate was detected.
(§9) According to the amount of radioactivity, the kinase activities in the systems added with the inhibitors of different concentrations were calculated, to obtain the inhibitors' effects of the compounds of different concentrations on the kinase activity; and fitting was performed with graphpad prism to obtain the inhibitory IC50 values of the compounds.

Another assay concerns the target T1, JAK3 (Homo sapiens, UniProt P52333).
T1 sequence (P52333 1-1124): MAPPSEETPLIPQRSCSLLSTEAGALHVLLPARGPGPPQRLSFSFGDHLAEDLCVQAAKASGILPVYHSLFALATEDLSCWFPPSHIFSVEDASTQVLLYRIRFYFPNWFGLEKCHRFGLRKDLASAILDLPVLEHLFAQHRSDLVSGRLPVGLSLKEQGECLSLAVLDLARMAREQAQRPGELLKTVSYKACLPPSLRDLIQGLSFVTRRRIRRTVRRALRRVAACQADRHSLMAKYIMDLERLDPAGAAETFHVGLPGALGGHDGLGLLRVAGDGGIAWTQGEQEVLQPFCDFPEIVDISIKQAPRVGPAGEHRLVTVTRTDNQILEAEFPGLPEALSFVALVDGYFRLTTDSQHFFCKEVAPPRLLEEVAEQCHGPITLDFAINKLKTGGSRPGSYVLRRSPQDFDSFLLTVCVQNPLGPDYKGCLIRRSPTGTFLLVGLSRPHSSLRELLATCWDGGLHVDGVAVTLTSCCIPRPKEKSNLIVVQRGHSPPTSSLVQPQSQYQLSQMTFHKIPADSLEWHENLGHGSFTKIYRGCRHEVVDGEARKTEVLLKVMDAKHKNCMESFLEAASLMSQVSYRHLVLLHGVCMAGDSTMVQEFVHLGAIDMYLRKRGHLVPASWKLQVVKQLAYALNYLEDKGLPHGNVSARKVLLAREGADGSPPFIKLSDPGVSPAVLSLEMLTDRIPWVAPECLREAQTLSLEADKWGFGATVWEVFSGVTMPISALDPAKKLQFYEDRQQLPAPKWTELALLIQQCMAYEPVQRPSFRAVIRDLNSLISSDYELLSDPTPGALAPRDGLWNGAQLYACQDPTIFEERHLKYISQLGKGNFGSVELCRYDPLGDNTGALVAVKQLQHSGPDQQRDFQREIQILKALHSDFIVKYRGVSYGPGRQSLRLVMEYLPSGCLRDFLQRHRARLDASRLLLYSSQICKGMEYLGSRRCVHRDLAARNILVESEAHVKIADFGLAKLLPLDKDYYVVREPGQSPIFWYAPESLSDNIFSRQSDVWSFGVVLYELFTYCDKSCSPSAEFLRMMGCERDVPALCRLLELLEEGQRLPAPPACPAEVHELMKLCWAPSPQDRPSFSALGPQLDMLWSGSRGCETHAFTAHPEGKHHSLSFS
Description: Kinase activity test (γ33P-ATP isotopic method), JAK3. Conditions: 33P-ATP 10 μM, 2 h reaction. The protocol:
as §1, §2, §3, §4, §5, §6, §7, §8, §9

The target in a further assay is JAK2 (Homo sapiens, UniProt O60674). Description: Kinase activity test (γ33P-ATP isotopic method), JAK2. The following applies: 33P-ATP 10 μM, 2 h reaction. The procedure: as §1, §2, §3, §4, §5, §6, §7, §8, §9
Chain of JAK2 (O60674 whole entry): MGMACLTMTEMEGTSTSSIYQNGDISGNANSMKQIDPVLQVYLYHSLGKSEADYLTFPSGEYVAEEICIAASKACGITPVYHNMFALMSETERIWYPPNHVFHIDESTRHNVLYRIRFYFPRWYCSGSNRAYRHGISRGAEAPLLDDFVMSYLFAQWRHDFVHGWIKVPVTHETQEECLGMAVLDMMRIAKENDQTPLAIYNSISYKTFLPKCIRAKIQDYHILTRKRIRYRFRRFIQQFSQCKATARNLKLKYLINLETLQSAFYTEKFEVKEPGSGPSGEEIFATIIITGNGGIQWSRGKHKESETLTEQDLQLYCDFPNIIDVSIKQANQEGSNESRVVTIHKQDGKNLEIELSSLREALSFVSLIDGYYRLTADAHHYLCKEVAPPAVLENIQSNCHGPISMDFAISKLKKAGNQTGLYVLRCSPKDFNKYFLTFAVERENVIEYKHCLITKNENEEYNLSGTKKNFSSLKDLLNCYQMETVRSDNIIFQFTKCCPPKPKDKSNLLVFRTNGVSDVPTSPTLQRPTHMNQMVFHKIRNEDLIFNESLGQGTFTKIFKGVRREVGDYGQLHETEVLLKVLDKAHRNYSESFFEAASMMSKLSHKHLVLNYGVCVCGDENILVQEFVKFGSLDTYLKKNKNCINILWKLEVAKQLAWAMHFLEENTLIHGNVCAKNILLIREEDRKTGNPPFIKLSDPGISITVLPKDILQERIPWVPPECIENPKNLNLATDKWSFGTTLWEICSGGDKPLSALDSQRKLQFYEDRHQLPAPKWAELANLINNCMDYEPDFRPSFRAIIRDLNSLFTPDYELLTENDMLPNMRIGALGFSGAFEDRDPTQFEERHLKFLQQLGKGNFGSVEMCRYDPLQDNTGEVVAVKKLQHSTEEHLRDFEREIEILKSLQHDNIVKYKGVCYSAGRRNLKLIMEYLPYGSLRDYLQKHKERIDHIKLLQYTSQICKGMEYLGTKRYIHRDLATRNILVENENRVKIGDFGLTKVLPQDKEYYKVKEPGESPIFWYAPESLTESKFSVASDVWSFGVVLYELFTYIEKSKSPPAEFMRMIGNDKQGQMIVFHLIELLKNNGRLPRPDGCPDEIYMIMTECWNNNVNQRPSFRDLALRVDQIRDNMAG

Chain of JAK1 (P23458 whole entry): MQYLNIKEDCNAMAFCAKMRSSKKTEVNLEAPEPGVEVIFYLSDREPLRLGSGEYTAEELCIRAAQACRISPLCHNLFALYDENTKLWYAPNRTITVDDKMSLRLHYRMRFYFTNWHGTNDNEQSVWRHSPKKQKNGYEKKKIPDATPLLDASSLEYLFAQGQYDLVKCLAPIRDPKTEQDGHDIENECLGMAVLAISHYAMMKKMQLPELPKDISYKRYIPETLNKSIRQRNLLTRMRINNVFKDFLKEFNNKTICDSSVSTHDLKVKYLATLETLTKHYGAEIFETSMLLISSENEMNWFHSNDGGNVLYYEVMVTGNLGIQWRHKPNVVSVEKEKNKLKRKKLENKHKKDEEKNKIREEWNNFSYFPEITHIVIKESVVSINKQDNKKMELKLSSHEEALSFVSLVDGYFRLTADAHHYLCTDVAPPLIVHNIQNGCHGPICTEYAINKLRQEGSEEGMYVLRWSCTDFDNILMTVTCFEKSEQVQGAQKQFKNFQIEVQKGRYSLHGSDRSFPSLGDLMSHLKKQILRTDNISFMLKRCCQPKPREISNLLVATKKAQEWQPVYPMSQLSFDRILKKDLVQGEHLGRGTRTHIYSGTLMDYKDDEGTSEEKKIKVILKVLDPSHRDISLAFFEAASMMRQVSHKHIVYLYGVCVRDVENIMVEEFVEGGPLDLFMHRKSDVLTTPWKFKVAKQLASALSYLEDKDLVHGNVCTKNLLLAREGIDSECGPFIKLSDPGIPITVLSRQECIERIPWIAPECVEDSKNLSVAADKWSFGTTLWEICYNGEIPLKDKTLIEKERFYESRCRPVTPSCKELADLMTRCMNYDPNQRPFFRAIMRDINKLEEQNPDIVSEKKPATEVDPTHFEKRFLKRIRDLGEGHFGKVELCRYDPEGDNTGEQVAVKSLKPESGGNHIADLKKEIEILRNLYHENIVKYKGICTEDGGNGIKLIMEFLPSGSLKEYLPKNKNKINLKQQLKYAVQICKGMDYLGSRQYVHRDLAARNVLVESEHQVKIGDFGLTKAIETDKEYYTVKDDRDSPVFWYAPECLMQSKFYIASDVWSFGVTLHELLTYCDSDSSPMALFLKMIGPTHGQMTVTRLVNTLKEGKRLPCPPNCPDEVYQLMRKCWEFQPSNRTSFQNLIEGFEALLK

The IC50 is the midpoint of a concentration-inhibition curve. On to `CN(c1ccnc2[nH]ccc12)N1CCCC(C(=O)NCC(F)(F)F)C1` (stereo not shown) [WO2016116025 WX15, reference compound], for which the IC50 against JAK1 was 0.0173 µM; against JAK3 it was 0.104 µM; at JAK2, 0.297 µM.
For the compound `CCOC(=O)[C@H]1CCCN(Nc2c(C(N)=O)cnc3[nH]ccc23)C1` [Example 8], the concentration for half-maximal inhibition (IC50) against JAK1 stood at 0.00203 µM; on JAK3, 0.00867 µM; on JAK2, 0.0465 µM.
As to `NC(=O)c1cnc2[nH]ccc2c1NN1CCC[C@@H](C(=O)NCC(F)F)C1` [Example 4, (R)-4-(3-(2,2-difluoroethylcarbamoyl)piperidine-1-amino)-1H-7-azaindole-5-carboxamide], the IC50 against JAK1 was found to be 0.0343 µM; at JAK3 it was 0.224 µM; at JAK2 it was 0.522 µM.
In the case of `NC(=O)c1cnc2[nH]ccc2c1NN1CCC[C@H](C(=O)NC2CC2)C1` [Example 6, (S)-4-(3-(cyclopropylcarbamoyl)piperidine-1-amino)-1H-7-azaindole-5-carboxamide], the 50% inhibitory concentration (IC50) was 0.00106 µM at JAK1, 0.0217 µM on JAK3 and 0.0446 µM at JAK2.
For the compound `CNC(=O)c1cnc2[nH]ccc2c1NN1CCC[C@H](C(=O)NCC(F)(F)F)C1` [Example 23], the concentration for half-maximal inhibition (IC50) came out at 0.00064 µM against JAK1, 0.00654 µM against JAK3 and 0.0188 µM on JAK2. For the same compound, the “activity in inhibiting the JAK1 kinase compared with Tofacitinib (in words)” value at JAK1 is “higher activity in inhibiting the JAK1 kinase than the positive drug control Tofacitinib”.
For `NC(=O)c1cnc2[nH]ccc2c1NN1CCC(C(=O)NCC(F)(F)F)C1` (stereo not shown) [Example 9], the IC50 on JAK1 came out at 0.00066 µM; at JAK3, 0.00785 µM; at JAK2, 0.0425 µM. Besides, at JAK1, the “activity in inhibiting the JAK1 kinase compared with Tofacitinib (in words)” value is given as “higher activity in inhibiting the JAK1 kinase than the positive drug control Tofacitinib”.
For the compound `NC(=O)c1cnc2[nH]ccc2c1NN1CCC2(CCNC2=O)CC1` [Example 14, 4-(1-keto-2,8-diazaspiro[4.5]decane-8-amino)-1H-7-azaindole-5-carboxamide], the midpoint of inhibition on JAK1, the IC50, lay at 0.0783 µM.
For `CNC(=O)c1cnc2[nH]ccc2c1NN1CCC[C@H](C(=O)NCC(F)F)C1` [Example 22, (S)-4-((3-((2,2-difluoroethyl)carbamoyl)piperidin-1-yl)amino)-N-methyl-1H-7-pyrrolo[2,3-b]pyridine-5-carboxamide], the 50% inhibitory concentration (IC50) on JAK1 was determined as 0.0359 µM; at JAK3, 0.103 µM; against JAK2, 0.137 µM.
On JAK1, `NC(=O)c1cnc2[nH]ccc2c1NN1C2CCC1COC2` [Example 10, 4-((3-oxa-8-azabicyclo[3.2.1]octan-8-yl)amino)-1H-7-azaindole-5-carboxamide] displayed a half-maximal inhibitory concentration (IC50) of 0.0519 µM.
For `CN(c1ccnc2[nH]ccc12)N1CCCC(C(=O)NCC#N)C1` (stereo not shown) [WO2016116025 WX14, reference compound], the IC50 against JAK1 amounted to 0.0197 µM; on JAK3, 0.0689 µM; on JAK2 it was 0.126 µM.
As for `NC(=O)c1cnc2[nH]ccc2c1NN1[C@@H]2CC[C@H]1C[C@@H](O)C2` [Example 11, 4-((3-hydroxyl-8-azabicyclo[3.2.1]octan-8-yl)amino)-1H-7-azaindole-5-carboxamide], the values for the IC50 against JAK1, at JAK3 and on JAK2 were 0.0117 µM, 0.0155 µM and 0.211 µM, respectively.
On to `NC(=O)c1cnc2[nH]ccc2c1NN1CCC(C(=O)NCC(F)(F)F)CC1` [Example 19, 4-(4-(2,2,2-trifluoroethylcarbamoyl)piperidine-1-amino)-1H-7-azaindole-5-carboxamide], for which the IC50 worked out at 0.024 µM on JAK1, 0.0214 µM on JAK3 and 0.353 µM against JAK2.
As for `CC1CCC(C(=O)NCC(F)(F)F)CN1Nc1c(C(N)=O)cnc2[nH]ccc12` (stereo not shown) [Example 16, 4-(2-methyl-5-(2,2,2-trifluoroethylcarbamoyl)piperidine-1-amino)-1H-7-azaindole-5-carboxamide], the figures for the IC50 at JAK1, at JAK3 and on JAK2 were 0.00115 µM, 0.009 µM and 0.0412 µM, respectively.
